Experimental data: US20260035359A1, “HERBICIDAL IMIDAZOLE COMPOUNDS” (SYNGENTA CROP PROTECTION AG, priority 2022, published 2026)

Key:
Format in all cases: in vivo
Setaria faberi (SETFA) [1] = experiment: Pre-emergence herbicidal glasshouse test; details: 250 g/ha, sprayed after one day cultivation, evaluated after 13 days
Procedure, shortened: (§1)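 Spray: acetone/water 50:50 + 0.5% Tween 20, 250 g/ha unless stated. Timing: day 1 pre-em, day 8 post-em. Conditions 24/16° C, 14 h light, 65% RH, watered twice daily. Read-out: % damage at 13 d, scored 1–5 (5=81-100%, 1=0-20%).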

[2] = tested on: Ipomoea hederacea (IPOHE); experiment: Pre-emergence herbicidal glasshouse test; details: 250 g/ha, sprayed after one day cultivation, evaluated after 13 days
Procedure, shortened: as §1

[3] = tested on: Echinochloa crus-gali (ECHCG); experiment: Pre-emergence herbicidal glasshouse test; details: 250 g/ha, sprayed after one day cultivation, evaluated after 13 days
Procedure, shortened: as §1

[4] = tested on: Amaranthus retoflexus (AMARE); experiment: Pre-emergence herbicidal glasshouse test; details: 250 g/ha, sprayed after one day cultivation, evaluated after 13 days
Procedure, shortened: as §1

[5] = tested on: Amaranthus pa/meri (AMAPA); experiment: Pre-emergence herbicidal glasshouse test; details: 250 g/ha, sprayed after one day cultivation, evaluated after 13 days
Procedure, shortened: as §1

Setaria faberi (SETFA) [6] = experiment: Post-emergence herbicidal glasshouse test; details: 250 g/ha, sprayed after 8 days cultivation, evaluated after 13 days
Procedure, shortened: as §1

[7] = tested on: Ipomoea hederacea (IPOHE); experiment: Post-emergence herbicidal glasshouse test; details: 250 g/ha, sprayed after 8 days cultivation, evaluated after 13 days
Procedure, shortened: as §1

[8] = tested on: Echinochloa crus-gali (ECHCG); experiment: Post-emergence herbicidal glasshouse test; details: 250 g/ha, sprayed after 8 days cultivation, evaluated after 13 days
Procedure, shortened: as §1

[9] = tested on: Amaranthus retoflexus (AMARE); experiment: Post-emergence herbicidal glasshouse test; details: 250 g/ha, sprayed after 8 days cultivation, evaluated after 13 days
Procedure, shortened: as §1

[10] = tested on: Amaranthus pa/meri (AMAPA); experiment: Post-emergence herbicidal glasshouse test; details: 250 g/ha, sprayed after 8 days cultivation, evaluated after 13 days
Procedure, shortened: as §1

| Compound | percentage damage caused to the plant, SETFA (Setaria faberi (SETFA) [1]) | percentage damage caused to the plant, IPOHE [2] | percentage damage caused to the plant, ECHCG [3] | percentage damage caused to the plant, AMARE [4] | percentage damage caused to the plant, AMAPA [5] | percentage damage caused to the plant, SETFA (Setaria faberi (SETFA) [6]) | percentage damage caused to the plant, IPOHE [7] | percentage damage caused to the plant, ECHCG [8] | percentage damage caused to the plant, AMARE [9] | percentage damage caused to the plant, AMAPA [10] |
| --- | --- | --- | --- | --- | --- | --- | --- | --- | --- | --- |
| CC(C)(C#N)CCc1nc(C(F)(F)F)cn1Cc1ncc(Cl)cn1 [Compound 1.062] | 4 (4=61-80%) | 5 (5=81-100%) | 4 (4=61-80%) | 5 (5=81-100%) | 5 (5=81-100%) | 2 (2=21-40%) | 3 (3=41-60%) | 1 (1=0-20%) | 2 (2=21-40%) | 2 (2=21-40%) |
| CC(=O)CCc1nc(C(F)(F)F)cn1Cc1ncc(Cl)cn1 [Compound 1.027] | 1 (1=0-20%) | 1 (1=0-20%) | 1 (1=0-20%) | 4 (4=61-80%) | 1 (1=0-20%) | 1 (1=0-20%) | 2 (2=21-40%) | 1 (1=0-20%) | 2 (2=21-40%) | 2 (2=21-40%) |
| CC(O)CCc1nc(C(F)(F)F)cn1Cc1ncc(Cl)cn1 (stereo not drawn) [Compound 1.082] | 2 (2=21-40%) | 1 (1=0-20%) | 1 (1=0-20%) | 4 (4=61-80%) | 2 (2=21-40%) | 1 (1=0-20%) | 1 (1=0-20%) | 1 (1=0-20%) | 2 (2=21-40%) | 3 (3=41-60%) |
